Common to all, as to type: in vivo
The subject of experiment [1] is grassy (in particular warm climate grassy) monocotyledonous weeds. In words: Post-emergence herbicidal activity, summary statements on Biological Examples 1 to 3. The note with it: applied at about 250 g/ha post-emergence; Biological Examples 1 and 2. The method, then: (§1) Seeds of a variety of test plant species were sown in standard soil ** in pots. After cultivation for one day (pre-emergence) or after 8 days cultivation (post-emergence) under controlled conditions in a glasshouse (at 24/16° C., day/night; 14 hours light; 65% humidity), the plants were sprayed with an aqueous spray solution derived from the formulation of the technical active ingredient (the test herbicide) in acetone/water (50:50) solution containing 0.5% Tween 20 (polyoxyethylene sorbitan monolaurate, CAS Reg. No. 9005-64-5). The test plants were then grown on under controlled conditions in a glasshouse (at 24/16° C., day/night; 14 hours light; 65% humidity) and watered twice daily. 13 Days after application of the test herbicide, for pre- and post-emergence, the test was evaluated visually for percentage phytotoxicity to each plant (where 100%=total damage to plant; 0%=no damage to plant). Generally, each test herbicide is only tested on 1 plant per plant species for each application rate tested and for each application timing. ** The “standard soil” in Biological Example 1 is usually a “sand” or “sandy loam” type of soil.
Seeds of a variety of monocotyledonous and dicotyledonous test plants are sown in standard soil in pots. The plants are cultivated for one day (for pre-emergence) or for about 12 days (range=10-13 days) (for post-emergence) under controlled conditions in a glasshouse (warm climate species at 24/18° C., cool climate species at 20/16° C., both at day/night; 16 hours light; 65% humidity). An “instant formulation”, known as the “IF50”, containing 50 g/litre (i.e. 5% w/v) of the “technical” (i.e. unformulated) active ingredient is prepared by dissolving the active ingredient in a mixture of organic solvents and emulsifier, details of which are provided in the Table below. […]
The test plants are then grown on, in a glasshouse (greenhouse) under controlled conditions (at either 24/18° C. or 20/16° C. (day/night) as mentioned above; 16 hours light; 65% humidity) and are watered twice daily. Either 14 or 15 days after application of the herbicide (14 or 15 DAA) (for post-emergence), or 20 days after application of the herbicide (20 DAA) (for pre-emergence), the test plants are evaluated visually, and an assessed percentage phytotoxicity score is given for each herbicidal application on each plant species (where 100%=total damage to plant; 0%=no damage to plant). […]

For experiment [2], the system named is Echinochloa crus-galli (ECHCG). In words: Biological Example 1A glasshouse assay, post-emergence application. The conditions noted are these: 312 h, 13 days after application, read-out: Percentage phytotoxicity ECHCG. The method, then: as §1
(§2) Dicotyledonous weeds: ABUTH=Abutilon theophrasti; AMARE=Amaranthus retroflexus. Grassy monocotyledonous weeds: SETFA=Setaria faberi; ALOMY=Alopecurus myosuroides; ECHCG=Echinochloa crus-galli; ZEAMX=Zea mays (corn, maize, e.g. volunteer corn). For Compound A16, the grassy monocotyledonous weed LOLPE (Lolium perenne) was used in the test insterad of ALOMY.

Experiment [3] relates to Amaranthus retroflexus (AMARE). The experiment is described as above. The conditions noted are these: 312 h, 13 days after application, read-out: Percentage phytotoxicity AMARE. The method, then: as §1, §2
Experiment [4] deals with Setaria faberi (SETFA). Described as above. The note with it: for pest or weed control at 30 g/ha / pest or weed control at 250 g/ha: Setaria faberi, 312 h, 13 days after application, read-out: Percentage phytotoxicity SETFA. Here is the method:
as §1, §2

The test system of experiment [5] is Abutilon theophrasti (ABUTH). Described as above. The conditions noted are these: 312 h, 13 days after application, read-out: Percentage phytotoxicity ABUTH. The method, then:
as §1, §2

Experiment [6] has as its system Alopecurus myosuroides (ALOMY). The experiment is described as above. The note with it: for Percentage phytotoxicity ALOMY: 13 days after application. Here is the method: as §1, §2
Experiment [7] deals with Zea mays (ZEAMX, corn, maize, e.g. volunteer corn). The description is as above. The conditions noted are these: for pest or weed control at 30 g/ha / pest or weed control at 250 g/ha: Zea mays, 312 h, 13 days after application, read-out: Percentage phytotoxicity ZEAMX. The method, then:
as §1, §2

Experiment [8] relates to Echinochloa crus-galli (ECHCG). Briefly: Biological Example 1B glasshouse assay, pre-emergence application. The note with it: 250 g/ha, 13 days after application. Here is the method: as §1, §2
The subject of experiment [9] is Amaranthus retroflexus (AMARE). Described as above. The note with it: 250 g/ha, 13 days after application. Here is the method:
as §1, §2

For experiment [10], the system named is Setaria faberi (SETFA). The experiment is described as above. The note with it: 250 g/ha, 13 days after application. The method, then:
as §1, §2

Experiment [11] deals with Abutilon theophrasti (ABUTH). The description is as above. The conditions noted are these: 250 g/ha, 13 days after application. Here is the method:
as §1, §2

Experiment [12] has as its system Alopecurus myosuroides (ALOMY). The experiment is described as above. The note with it: 250 g/ha, 13 days after application. The method, then: as §1, §2
Experiment [13] deals with Zea mays (ZEAMX, corn, maize, e.g. volunteer corn). The description is as above. The conditions noted are these: 250 g/ha, 13 days after application. Here is the method: as §1, §2
[14] abbreviates: applied at about 250 g/ha post-emergence.

Take `CC#Cc1cc(F)c(C2C(=O)CCC2=O)c(OC)c1` [Compound A9]: in experiment [1], the “post-emergent herbicidal potency against grassy monocotyledonous weeds (in words)” value is reported as “potent post-emergent herbicides”. In addition, the pest or weed control at 30 g/ha in experiment [2] was 60%; in experiment [3], 0%; in the experiment on Setaria faberi (SETFA) [4] (post-emergence) it was 70%; in [5] it was 0%; in experiment [7] (post-emergence), 70%. For the same compound, the pest or weed control at 250 g/ha in experiment [2] was 70%; in [3], 20%; in the experiment with Setaria faberi (SETFA) [4] (post-emergence, 250 g/ha) it was 80%; in experiment [5], 30%; in [7] (post-emergence, 250 g/ha), 90%. Moreover, the “Percentage phytotoxicity ALOMY” value in experiment [6] (30 g/ha) came to 0%; in [6] (250 g/ha), 20%; in [12], 30%. Moreover, in experiment [8], the “Percentage phytotoxicity ECHCG” value is on record as 80%. Further, the “Percentage phytotoxicity AMARE” value in experiment [9] came to 20%. The “Percentage phytotoxicity SETFA” value in the experiment on Setaria faberi (SETFA) [10] was 80%. For the same compound, the “Percentage phytotoxicity ABUTH” value in experiment [11] is reported as 0%. Besides, the “Percentage phytotoxicity ZEAMX” value in [13] worked out at 80%.

`CC#Cc1cc(F)c(C2C(=O)CC3(CCOCC3)CC2=O)c(OC)c1` [Compound A14]: the pest or weed control at 250 g/ha in [2] turned out to be 20%; in [3], 10%; with Setaria faberi (SETFA) [4] (post-emergence, 250 g/ha) it was 70%; in experiment [5] it was 0%; in [7] (post-emergence, 250 g/ha), 80%. Besides, the “post-emergent herbicidal potency on SETFA (in words)” value in the experiment on Setaria faberi (SETFA) [4] (setting [14]) is on record as “potent post-emergent herbicides”. The “herbicidal potency against SETFA compared with compound B2 (in words)” value in the experiment on Setaria faberi (SETFA) [4] (post-emergence, 250 g/ha, Biological Example 1A, more potent 'perhaps also' on SETFA) is listed as “perhaps also”. The “Percentage phytotoxicity ALOMY” value in [6] (250 g/ha) and in experiment [12] was 40% each time. Also, in experiment [6] (250 g/ha, Biological Example 1A), the “herbicidal potency against ALOMY compared with compound B2 (in words)” value was “more potent herbicide”. Also, in [7] (setting [14]), the “post-emergent herbicidal potency on ZEAMX (in words)” value is recorded as “potent post-emergent herbicides”. Besides, the “herbicidal potency against ZEAMX compared with compound B2 (in words)” value in [7] (post-emergence, 250 g/ha, Biological Example 1A) is reported as “more potent herbicide”. The “Percentage phytotoxicity ECHCG” value in [8] turned out to be 70%. Moreover, the “Percentage phytotoxicity AMARE” value in experiment [9] came out at 20%. Moreover, the “Percentage phytotoxicity SETFA” value with Setaria faberi (SETFA) [10] worked out at 20%. Further, in experiment [11], the “Percentage phytotoxicity ABUTH” value stood at 0%. In addition, the “Percentage phytotoxicity ZEAMX” value in experiment [13] stood at 30%.

As for `CC#Cc1cc(F)c(C2C(=O)C(C)(C)OC(C)(C)C2=O)c(OC)c1` [Compound A10], the “post-emergent herbicidal potency against grassy monocotyledonous weeds (in words)” value in experiment [1] is “potent post-emergent herbicides”. Moreover, the pest or weed control at 30 g/ha in experiment [2] came out at 50%; in [3] it was 0%; with Setaria faberi (SETFA) [4] (post-emergence) it was 70%; in experiment [5] it was 0%; in experiment [7] (post-emergence), 40%. Also, the pest or weed control at 250 g/ha in [2] is 80%; in [3] it was 0%; in the experiment with Setaria faberi (SETFA) [4] (post-emergence, 250 g/ha), 90%; in [5] it was 0%; in experiment [7] (post-emergence, 250 g/ha), 90%. In addition, the “Percentage phytotoxicity ALOMY” value was found to be 40% in [6] (30 g/ha), 80% in experiment [6] (250 g/ha) and 50% in [12]. The “Percentage phytotoxicity ECHCG” value in [8] was determined as 90%. In addition, in experiment [9], the “Percentage phytotoxicity AMARE” value is listed as 0%. Moreover, the “Percentage phytotoxicity SETFA” value with Setaria faberi (SETFA) [10] worked out at 70%. Further, the “Percentage phytotoxicity ABUTH” value in [11] was 0%. Further, the “Percentage phytotoxicity ZEAMX” value in experiment [13] is listed as 50%.

As to `CC#Cc1cc(F)c(C2C(=O)CC(CC(C)SC)CC2=O)c(OC)c1` (stereo not shown) [Compound A12], the pest or weed control at 250 g/ha in experiment [2] is 20%; in [3], 0%; with Setaria faberi (SETFA) [4] (post-emergence, 250 g/ha), 0%; in experiment [5], 0%; in experiment [7] (post-emergence, 250 g/ha), 30%. The “Percentage phytotoxicity ALOMY” value in experiment [6] (250 g/ha) amounted to 0%.

On to `C#Cc1cc(F)c(C2C(=O)CC3(CCOCC3)CC2=O)c(OC)c1` [Compound B2], for which the pest or weed control at 250 g/ha in experiment [2] came out at 30%; in experiment [3], 0%; in the experiment with Setaria faberi (SETFA) [4] (post-emergence, 250 g/ha), 60%; in [5], 0%; in experiment [7] (post-emergence, 250 g/ha), 40%. Besides, the “Percentage phytotoxicity ALOMY” value is on record as 10% in experiment [6] (250 g/ha) and 50% in experiment [12]. In addition, in experiment [8], the “Percentage phytotoxicity ECHCG” value was 40%. Also, the “Percentage phytotoxicity AMARE” value in experiment [9] is on record as 40%. For the same compound, the “Percentage phytotoxicity SETFA” value with Setaria faberi (SETFA) [10] is 30%. Moreover, the “Percentage phytotoxicity ABUTH” value in experiment [11] is listed as 0%. Moreover, in experiment [13], the “Percentage phytotoxicity ZEAMX” value was determined as 50%.

For the origin of these results see patent publication US10696686B2, “Herbicidally active (alkynyl-phenyl)-substituted cyclic dione compounds and derivatives thereof” (Syngenta Limited, priority 2013, dated 2020).
